The half-life is the time in which the quantity being followed falls by half. A low value points to fast loss. As a reminder, the Vd is the apparent volume that relates the amount in the body to the concentration in plasma or blood. A higher Vd goes with wide distribution into tissue. The term clearance denotes a measure of how efficiently the substance is removed, as volume per time. A lower clearance goes with a low capacity for elimination. One may read the Cmax as the maximum level reached in the sampled fluid or tissue. As a reminder, the Tmax is the time at which the peak concentration occurs. As usually defined, the AUC is concentration integrated over time.

Data set [1] in a line: in vivo. To be noted: C57BL/6, mouse.
A short description of data set [2]: in vivo. To be noted: Wistar-Han, rat.
The conditions of data set [3]: Mouse C57BL/6; Dose IV: 1 mg/kg PO: 10 mg/kg.
For data set [4] the following is noted: Rat Wistar-Han; Dose 0.3 mg/kg PO: 3 mg/kg.

Each structure is given as a SMILES string.

In the data set “in vivo [1]”, `Nc1ncc(-c2ncccc2OC(F)(F)F)nc1C(=O)Nc1ncccc1N1CCC(N)CC1` [Example 2, 3-amino-N-(3-(4-aminopiperidin-1-yl)pyridin-2-yl)-6-(3-(trifluoromethoxy)pyridin-2-yl)pyrazine-2-carboxamide] had a half-life of 30 min. In the data set “in vivo [1]” (intravenous, 1 mg/kg), the Vd is 0.4 L/kg and the clearance stood at 14 mL/min/kg. In “in vivo [1]” (po, 10 mg/kg), the Cmax was found to be 946 nM and the Tmax is 18 min. The AUC in the data set “in vivo [2]” (iv, 0.3 mg/kg) was determined as 0.38 µM·h. In the data set “in vivo [2]” (po, 3 mg/kg), the AUC was 2.77 µM·h, the Cmax is 756 nM and the Tmax is 90 min. Further, the “Oral BA (% F)” value in data set [3] was 6 % F. Moreover, the “Vss” value in data set [4] worked out at 1.1 L/kg.

The values are drawn from US9452998B2, “Protein kinase C inhibitors and methods of their use” (NOVARTIS AG, priority 2014, dated 2016).
